ChEMBL document CHEMBL3526079, “Glutaredoxin is involved in the formation of the pharmacologically active metabolite of clopidogrel from its GSH conjugate” (Drug Metab Dispos, 2012)

Tests used:
[1] = Activity of human recombinant glutaredoxin assessed as intrinsic clearance of enzyme-mediated (E)-2-(1-((S)-1-(2-chlorophenyl)-2-methoxy-2-oxoethyl)-4-mercaptopiperidin-3-ylidene)acetic acid formation per ug of protein; assay type: ADME
[2] = Activity of human recombinant glutaredoxin assessed as intrinsic clearance of enzyme-mediated (E)-2-(1-((S)-1-(2-chlorophenyl)-2-methoxy-2-oxoethyl)-4-mercaptopiperidin-3-ylidene)acetic acid formation per pmol of protein; assay type: ADME
[3] = Activity of human recombinant glutaredoxin assessed as enzyme-mediated (E)-2-(1-((S)-1-(2-chlorophenyl)-2-methoxy-2-oxoethyl)-4-mercaptopiperidin-3-ylidene)acetic acid formation; assay type: ADME
[4] = Activity of human recombinant glutaredoxin assessed as enzyme-mediated (E)-2-(1-((S)-1-(2-chlorophenyl)-2-methoxy-2-oxoethyl)-4-mercaptopiperidin-3-ylidene)acetic acid formation at 1 uM for 2.5 mins by LC-MS/MS analysis in presence of 5 mM GSH and 19 to 300 ug/ml anti-human glutaredoxin antibody; assay type: ADME
Liver microsome [5] = test: Drug level in human liver microsome assessed as compound formation treated with R-115991 at 5 uM by LC-MS/MS analysis in presence of 5 mM GSH; assay type: ADME; conditions: microsomes
Liver cytosol [6] = test: Drug metabolism in human liver cytosol assessed as (E)-2-(1-((S)-1-(2-chlorophenyl)-2-methoxy-2-oxoethyl)-4-mercaptopiperidin-3-ylidene)acetic acid formation at 1 uM for 2.5 mins by LC-MS/MS analysis in presence of 5 mM GSH and 19 to 300 ug/ml anti-human glutaredoxin antibody; assay type: ADME
Liver microsome [7] = test: Drug metabolism in human liver microsome assessed as (E)-2-(1-((S)-1-(2-chlorophenyl)-2-methoxy-2-oxoethyl)-4-mercaptopiperidin-3-ylidene)acetic acid formation at 1 uM for 2.5 mins by LC-MS/MS analysis in presence of 5 mM GSH and 19 to 300 ug/ml anti-human glutaredoxin antibody; assay type: ADME; conditions: microsomes
[8] = Activity of human recombinant glutaredoxin assessed as enzyme-mediated (E)-2-(1-((S)-1-(2-chlorophenyl)-2-methoxy-2-oxoethyl)-4-mercaptopiperidin-3-ylidene)acetic acid formation per ug of protein; assay type: ADME
Liver microsome [9] = test: Drug level in human liver microsome assessed as compound formation rate measured per mg of protein treated with 1 uM R-361015-SG for 2.5 mins by LC-MS/MS analysis in presence of 5 mM GSH; assay type: ADME; conditions: microsomes
Liver cytosol [10] = test: Drug level in human liver cytosol assessed as compound formation rate measured per mg of protein treated with 1 uM R-361015-SG for 2.5 mins by LC-MS/MS analysis in presence of 5 mM GSH; assay type: ADME, tissue-based
[11] = Activity of human recombinant glutaredoxin assessed as enzyme-mediated compound formation rate measured per ug of enzyme at 1 uM for 2.5 mins by LC-MS/MS analysis in presence of 5 mM GSH; assay type: ADME
Liver microsome [12] = test: (§1) Drug metabolism in human liver microsome assessed as (2S)-2-amino-5-((2R)-1-(carboxymethylamino)-3-(((E)-3-(carboxymethylene)-1-((S)-1-(2-chlorophenyl)-2-methoxy-2-oxoethyl)piperidin-4-yl)disulfanyl)-1-oxopropan-2-ylamino)-5-oxopentanoic acid formation at 5 uM by LC-MS/MS analysis in presence of 5 mM GSH; assay type: ADME; conditions: microsomes
Liver microsome [13] = test: Drug metabolism in human liver microsome assessed as (E)-2-(1-((S)-1-(2-chlorophenyl)-2-methoxy-2-oxoethyl)-4-mercaptopiperidin-3-ylidene)acetic acid formation at 5 uM by LC-MS/MS analysis in presence of 5 mM GSH; assay type: ADME; conditions: microsomes
Liver microsome [14] = test: as §1, with “GSH and 1 mg/ml human liver cytosol” for “GSH”; assay type: ADME; conditions: microsomes

Row | clearance [1] | CL [2] | Km [3] | Drug metabolism [4] | Drug metabolism (Liver microsome [5]) | Drug metabolism (Liver cytosol [6]) | Drug metabolism (Liver microsome [7]) | Vmax [8] | Drug metabolism (Liver microsome [9]) | Drug metabolism (Liver cytosol [10]) | Drug metabolism [11] | Drug metabolism (Liver microsome [12]) | Drug metabolism (Liver microsome [13]) | Drug metabolism (Liver microsome [14]) | SMILES
1 | 12.9 µL/min/µg | 0.1548 µL/min | 30 µM | metabolite_not_detected | metabolite_detected | metabolite_not_detected | metabolite_not_detected | 381.6 pmol/min | – | – | – | – | – | – | COC(=O)[C@H](c1ccccc1Cl)N1CCC(SSC[C@H](NC(=O)CC[C@H](N)C(=O)O)C(=O)NCC(=O)O)/C(=C/C(=O)O)C1 (stereo not given in full)
2 | – | – | – | – | metabolite_detected | – | – | – | 508 pmol/min | 2843 pmol/min | 130 pmol/min | – | – | – | COC(=O)[C@H](c1ccccc1Cl)N1CCC(S)/C(=C/C(=O)O)C1 (stereo not given in full)
3 | – | – | – | – | – | – | – | – | – | – | – | metabolite_detected | metabolite_detected | metabolite_not_detected | COC(=O)[C@H](c1ccccc1Cl)N1CCC2SC(=O)C=C2C1 (stereo not given in full) [CLOPIDOGREL THIOLACTONE]
